Data: ChEMBL document CHEMBL1150788, “In vitro susceptibility of Sporothrix schenckii to six antifungal agents determined using three different methods” (2007)
≈ marks a conversion by molar mass, not a printed value.

Assays:
Format in all cases: functional
Sporothrix schenckii [1] = experiment: Antifungal activity against Sporothrix schenckii P24223 isolate from cutaneous-lymphatic sporotrichosis patient after 72 hrs by Sensititre YeastOne method
Sporothrix schenckii [2] = experiment: Antifungal activity against Sporothrix schenckii PGAC0016 isolate from cutaneous-lymphatic sporotrichosis patient after 72 hrs by Sensititre YeastOne method
Sporothrix schenckii [3] = experiment: Antifungal activity against Sporothrix schenckii P10012 isolate from cutaneous-lymphatic sporotrichosis patient after 72 hrs by Sensititre YeastOne method
Sporothrix schenckii [4] = experiment: Antifungal activity against Sporothrix schenckii P0019 isolate from cutaneous-lymphatic sporotrichosis patient after 72 hrs by Sensititre YeastOne method
Sporothrix schenckii [5] = experiment: Antifungal activity against Sporothrix schenckii PJRC002 isolate from cutaneous-lymphatic sporotrichosis patient after 72 hrs by Sensititre YeastOne method
Sporothrix schenckii [6] = experiment: Antifungal activity against Sporothrix schenckii P3287 isolate from cutaneous-lymphatic sporotrichosis patient after 72 hrs by Sensititre YeastOne method
Sporothrix schenckii [7] = experiment: Antifungal activity against Sporothrix schenckii PSCC1 isolate from cutaneous-lymphatic sporotrichosis patient after 72 hrs by Sensititre YeastOne method
Sporothrix schenckii [8] = experiment: Antifungal activity against Sporothrix schenckii P24255 isolate from cutaneous-lymphatic sporotrichosis patient after 72 hrs by Sensititre YeastOne method
Sporothrix schenckii [9] = experiment: Antifungal activity against Sporothrix schenckii PSSA81 isolate from cutaneous-lymphatic sporotrichosis patient after 72 hrs by Sensititre YeastOne method
Sporothrix schenckii [10] = experiment: Antifungal activity against Sporothrix schenckii P20825 isolate from cutaneous-lymphatic sporotrichosis patient after 72 hrs by Sensititre YeastOne method
Candida parapsilosis = experiment: Antifungal activity against Candida parapsilosis ATCC 22019 […] after 72 hrs by Sensititre YeastOne method; conditions: Lodderomyces parapsilosis, ATCC 22019, 72 h
Sporothrix schenckii [11] = experiment: Antifungal activity against Sporothrix schenckii P25013 isolate from cutaneous-lymphatic sporotrichosis patient after 72 hrs by Sensititre YeastOne method
Sporothrix schenckii [12] = experiment: Antifungal activity against Sporothrix schenckii P26187 isolate from cutaneous-lymphatic sporotrichosis patient after 72 hrs by Sensititre YeastOne method
Sporothrix schenckii [13] = experiment: Antifungal activity against Sporothrix schenckii SSA29 isolate from cutaneous-lymphatic sporotrichosis patient after 72 hrs by Sensititre YeastOne method
Sporothrix schenckii [14] = experiment: Antifungal activity against Sporothrix schenckii P14036 isolate from cutaneous-lymphatic sporotrichosis patient after 72 hrs by Sensititre YeastOne method
Sporothrix schenckii [15] = experiment: Antifungal activity against Sporothrix schenckii P14954 isolate from cutaneous-lymphatic sporotrichosis patient after 72 hrs by Sensititre YeastOne method
Sporothrix schenckii [16] = experiment: Antifungal activity against Sporothrix schenckii MRSS4 isolate from cutaneous-lymphatic sporotrichosis patient after 72 hrs by Sensititre YeastOne method
Sporothrix schenckii [17] = experiment: Antifungal activity against Sporothrix schenckii P30019 isolate from cutaneous-lymphatic sporotrichosis patient after 72 hrs by Sensititre YeastOne method
Sporothrix schenckii [18] = experiment: Antifungal activity against Sporothrix schenckii isolate from cutaneous-lymphatic sporotrichosis patient after 72 hrs by Sensititre YeastOne method
Pichia kudriavzevii = experiment: Antifungal activity against Candida krusei ATCC 6258 […] after 72 hrs by Sensititre YeastOne method; conditions: ATCC 6258, 72 h
Sporothrix schenckii [19] = experiment: Antifungal activity against Sporothrix schenckii P30915 isolate from cutaneous-lymphatic sporotrichosis patient after 72 hrs by Sensititre YeastOne method
Sporothrix schenckii [20] = experiment: Antifungal activity against Sporothrix schenckii P1621 isolate from cutaneous-lymphatic sporotrichosis patient after 72 hrs by Sensititre YeastOne method

CC(=O)N1CCN(c2ccc(OCC3COC(Cn4ccnc4)(c4ccc(Cl)cc4Cl)O3)cc2)CC1 (stereo not drawn) [KETOCONAZOLE]
MIC (Sporothrix schenckii [1]): 0.5 µg/mL (≈ 0.941 µM) | MIC (Sporothrix schenckii [2]): 0.125 µg/mL (≈ 0.235 µM) | MIC (Sporothrix schenckii [3]): 0.25 µg/mL (≈ 0.47 µM) | MIC (Sporothrix schenckii [4]): 0.06 µg/mL (≈ 0.113 µM) | MIC (Sporothrix schenckii [5]): 0.125 µg/mL (≈ 0.235 µM) | MIC (Sporothrix schenckii [6]): 0.5 µg/mL (≈ 0.941 µM) | MIC (Sporothrix schenckii [7]): 0.125 µg/mL (≈ 0.235 µM) | MIC (Sporothrix schenckii [8]): 0.125 µg/mL (≈ 0.235 µM) | MIC (Sporothrix schenckii [9]): 0.06 µg/mL (≈ 0.113 µM) | MIC (Sporothrix schenckii [10]): 0.125 µg/mL (≈ 0.235 µM) | MIC (Candida parapsilosis): 0.125 µg/mL (≈ 0.235 µM) | MIC (Sporothrix schenckii [11]): 0.06 µg/mL (≈ 0.113 µM) | MIC (Sporothrix schenckii [12]): 0.25 µg/mL (≈ 0.47 µM) | MIC (Sporothrix schenckii [13]): 0.25 µg/mL (≈ 0.47 µM) | MIC (Sporothrix schenckii [14]): 0.125 µg/mL (≈ 0.235 µM) | MIC (Sporothrix schenckii [15]): 0.25 µg/mL (≈ 0.47 µM) | MIC (Sporothrix schenckii [16]): 0.25 µg/mL (≈ 0.47 µM) | MIC (Sporothrix schenckii [17]): 0.125 µg/mL (≈ 0.235 µM) | MIC50 (Sporothrix schenckii [18]): 0.25 µg/mL (≈ 0.47 µM) | MIC90 (Sporothrix schenckii [18]): 0.5 µg/mL (≈ 0.941 µM) | MIC (Pichia kudriavzevii): 1 µg/mL (≈ 1.88 µM) | MIC (Sporothrix schenckii [19]): 0.5 µg/mL (≈ 0.941 µM) | MIC (Sporothrix schenckii [20]): 0.25 µg/mL (≈ 0.47 µM)
